From ChEMBL document CHEMBL2021833, “Calcitonin gene-related peptide (CGRP) receptor antagonists: pyridine as a replacement for a core amide group” (Bioorg Med Chem Lett, 2012)

Key:
[1] = target: T1, Calcitonin gene-related peptide type 1 receptor (Homo sapiens, UniProt O60894+Q16602); assay: Antagonist activity at CGRP receptor in human SK-N-MC cells assessed as inhibition of CGRP-stimulated cAMP production; assay type: functional, cell-based
[2] = system: Liver microsomes; assay: Metabolic stability in rat liver microsomes; assay type: ADME, Microsome
[3] = system: Liver microsomes; assay: Metabolic stability in human liver microsomes; assay type: ADME, Microsome
[4] = target: T1, Calcitonin gene-related peptide type 1 receptor; assay: Displacement of [I125]CGRP from CGRP receptor in human SK-N-MC cell membrane after 2 hrs by gamma or scintillation counting; assay type: cell membranes
[5] = system: Plasma; assay: Fraction unbound in po dosed rat plasma; assay type: ADME, organism-based; conditions: in vivo
[6] = Permeability across human Caco2 cells; assay type: ADME, cell-based; conditions: Caco-2, read-out: permeability
[7] = target: T1, Calcitonin gene-related peptide type 1 receptor; assay: Antagonist activity at CGRP receptor in human SK-N-MC cells assessed as inhibition of CGRP-stimulated cAMP production in presence of plasma; assay type: functional, cell-based
[8] = Oral bioavailability in rat; assay type: ADME, organism-based; conditions: in vivo

T1 sequence (Q16602 whole entry, one chain of several): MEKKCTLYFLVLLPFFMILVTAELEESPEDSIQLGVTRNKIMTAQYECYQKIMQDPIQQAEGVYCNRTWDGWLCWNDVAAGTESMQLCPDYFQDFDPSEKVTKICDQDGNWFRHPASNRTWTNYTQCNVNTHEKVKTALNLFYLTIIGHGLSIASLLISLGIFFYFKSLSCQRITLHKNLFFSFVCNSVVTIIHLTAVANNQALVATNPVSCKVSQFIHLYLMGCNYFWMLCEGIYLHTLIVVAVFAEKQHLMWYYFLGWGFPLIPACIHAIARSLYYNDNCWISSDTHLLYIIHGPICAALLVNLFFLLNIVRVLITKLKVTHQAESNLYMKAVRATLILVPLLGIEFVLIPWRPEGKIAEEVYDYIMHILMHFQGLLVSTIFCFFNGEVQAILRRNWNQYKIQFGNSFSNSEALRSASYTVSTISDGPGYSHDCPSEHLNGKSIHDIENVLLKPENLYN

Row | SMILES | IC50 [1] | Stability [2] | Stability [3] | IC50 [4] | other results
1 | Cc1cc(CC(OC(=O)N2CCC(N3Cc4ccccc4NC3=O)CC2)c2ccc3ccccc3n2)cc2cn[nH]c12 (stereo unspecified) | 4.8 nM | Unstable | Unstable | 1.4 nM | –
2 | Cc1cc(CC(OC(=O)N2CCC(n3c(=O)[nH]c4ncccc43)CC2)c2cc(C(=O)N(C)C)cc(Cl)n2)cc2cn[nH]c12 (stereo unspecified) | – | – | – | 0.071 nM | Cp(f) [5]: 21%; Papp [6]: 1.6 ×10⁻⁶ cm/s; Ki [7]: 0.18 nM
3 | Cc1cc(CC(NC(=O)N2CCC(N3Cc4ccccc4NC3=O)CC2)c2ccc3ccccc3n2)cc2cn[nH]c12 (stereo unspecified) | 1.4 nM | – | – | 2 nM | –
4 | Cc1cccc(C(Cc2cc(C)c3[nH]ncc3c2)NC(=O)N2CCC(N3Cc4ccccc4NC3=O)CC2)n1 (stereo unspecified) | 3.4 nM | – | – | 3.8 nM | –
5 | Cc1cc(CC(OC(=O)N2CCC(N3Cc4ccccc4NC3=O)CC2)c2ccccn2)cc2c(Br)n[nH]c12 (stereo unspecified) | – | – | – | 0.33 nM | –
6 | Cc1cc(CC(OC(=O)N2CCC(N3Cc4ccccc4NC3=O)CC2)c2ccccn2)cc2c(CN3CCOCC3)n[nH]c12 (stereo unspecified) | – | – | – | 1.9 nM | –
7 | Cc1cc(C[C@@H](NC(=O)N2CCC(N3Cc4cccc(F)c4NC3=O)CC2)C(=O)N2CCC(N3CCCCC3)CC2)cc2cn[nH]c12 | – | – | – | – | Ki [4]: 0.013 nM
8 | CCc1ccnc(C(CC(=O)N2CCC(N3Cc4ccccc4NC3=O)CC2)Cc2cc(C)c3[nH]ncc3c2)c1 (stereo unspecified) | 13 nM | – | – | 10 nM | Papp [6]: 14 ×10⁻⁶ cm/s; bioavailability [8]: 2%
9 | Cc1cc(CC(NC(=O)N2CCC(N3Cc4ccccc4NC3=O)CC2)c2cccc(Br)n2)cc2cn[nH]c12 (stereo unspecified) | 0.82 nM | – | – | 0.49 nM | –
10 | Cc1cc(CC(OC(=O)N2CCC(N3Cc4ccccc4NC3=O)CC2)c2ccccn2)cc2cn[nH]c12 (stereo unspecified) | 1.9 nM | Unstable | Unstable | 1.5 nM | –
11 | Cc1cc(CC(OC(=O)N2CCC(N3Cc4ccccc4NC3=O)CC2)c2ccccn2)cc2c(-c3ccccc3)n[nH]c12 (stereo unspecified) | – | – | – | 0.24 nM | –
12 | Cc1cc(CC(CC(=O)N2CCC(N3Cc4ccccc4NC3=O)CC2)c2ccc(CN3CCCCC3)cn2)cc2cn[nH]c12 (stereo unspecified) | 1.3 nM | – | – | 1.8 nM | Papp [6]: < 1.5 ×10⁻⁶ cm/s
13 | COC(=O)c1ccnc(C(Cc2cc(C)c3[nH]ncc3c2)OC(=O)N2CCC(N3Cc4ccccc4NC3=O)CC2)c1 (stereo unspecified) | – | Unstable | Unstable | 4.4 nM | –
14 | Cc1cc(CC(CC(=O)N2CCC(N3Cc4ccccc4NC3=O)CC2)c2ccc(C=O)cn2)cc2cn[nH]c12 (stereo unspecified) | 0.94 nM | – | – | 1.1 nM | –
15 | Cc1cc(CC(OC(=O)N2CCC(N3Cc4ccccc4NC3=O)CC2)c2ccccn2)cc2c(CN3CCCC3)n[nH]c12 (stereo unspecified) | – | – | – | 6.8 nM | –
16 | Cc1cc(CC(CC(=O)N2CCC(N3Cc4cccc(F)c4NC3=O)CC2)c2ccccn2)cc2cn[nH]c12 (stereo unspecified) | 20 nM | – | – | 35 nM | Papp [6]: 21 ×10⁻⁶ cm/s; bioavailability [8]: 3%

Row | SMILES | IC50 [1] | Stability [2] | Stability [3] | IC50 [4] | other results
17 | Cc1cc(CC(CC(=O)N2CCC(N3Cc4ccccc4NC3=O)CC2)c2ccccn2)cc2cn[nH]c12 (stereo unspecified) | 8.7 nM | – | – | 8.6 nM | Papp [6]: 12 ×10⁻⁶ cm/s; bioavailability [8]: 3%
18 | Cc1cc(CC(OC(=O)N2CCC(N3CCc4ccccc4NC3=O)CC2)c2cc(C(=O)N(C)C)cc(Cl)n2)cc2cn[nH]c12 (stereo unspecified) | – | – | – | 0.093 nM | Papp [6]: < 1.5 ×10⁻⁶ cm/s
19 | Cc1cc(CC(OC(=O)N2CCC(N3Cc4ccccc4NC3=O)CC2)c2ccccn2)cc2c(C=O)n[nH]c12 (stereo unspecified) | – | – | – | 1.3 nM | –
20 | Cc1cc(CC(OC(=O)N2CCC(N3Cc4ccccc4NC3=O)CC2)c2cc3ccccc3cn2)cc2cn[nH]c12 (stereo unspecified) | 0.63 nM | Unstable | Unstable | 0.46 nM | –
21 | Cc1cc(CC(NC(=O)N2CCC(N3Cc4ccccc4NC3=O)CC2)c2cccc(-c3ccccc3)n2)cc2cn[nH]c12 (stereo unspecified) | 14 nM | – | – | 12 nM | –
22 | Cc1cc(CC(OC(=O)N2CCC(N3Cc4ccccc4NC3=O)CC2)c2cc(C#N)ccn2)cc2cn[nH]c12 (stereo unspecified) | – | Unstable | Unstable | 3 nM | –
23 | Cc1cc(CC(NC(=O)N2CCC(N3Cc4ccccc4NC3=O)CC2)c2ccccn2)cc2cn[nH]c12 (stereo unspecified) | 4.1 nM | – | – | 3.1 nM | –
24 | Cc1cccnc1C(CC(=O)N1CCC(N2Cc3ccccc3NC2=O)CC1)Cc1cc(C)c2[nH]ncc2c1 (stereo unspecified) | 8.2 nM | – | – | 4.4 nM | –
25 | Cc1cc(CC(CC(=O)N2CCC(N3Cc4ccccc4NC3=O)CC2)c2ccc(CO)cn2)cc2cn[nH]c12 (stereo unspecified) | 6 nM | – | – | 7.9 nM | –
26 | Cc1cc(CC(OC(=O)N2CCC(N3Cc4ccccc4NC3=O)CC2)c2cc(C(=O)N(C)C)ccn2)cc2cn[nH]c12 (stereo unspecified) | – | Unstable | Unstable | 0.33 nM | –
27 | Cc1cc(CC(OC(=O)N2CCC(N3Cc4ccccc4NC3=O)CC2)c2cc(-c3ccncc3)ccn2)cc2cn[nH]c12 (stereo unspecified) | – | Unstable | Unstable | 0.27 nM | –
28 | Cc1cc(CC(OC(=O)N2CCC(N3Cc4ccccc4NC3=O)CC2)c2ccccn2)cc2c(Cl)n[nH]c12 (stereo unspecified) | – | – | – | 0.39 nM | –
29 | Cc1ccc(C(CC(=O)N2CCC(N3Cc4ccccc4NC3=O)CC2)Cc2cc(C)c3[nH]ncc3c2)nc1 (stereo unspecified) | 18 nM | – | – | 12 nM | Papp [6]: 6.4 ×10⁻⁶ cm/s; bioavailability [8]: 1%
30 | Cc1cc(CC(OC(=O)N2CCC(N3Cc4ccccc4NC3=O)CC2)c2cccc(Br)n2)cc2cn[nH]c12 (stereo unspecified) | 0.46 nM | Unstable | Unstable | 0.38 nM | –
31 | Cc1cc(CC(NC(=O)N2CCC(N3Cc4ccccc4NC3=O)CC2)c2cc3ccccc3cn2)cc2cn[nH]c12 (stereo unspecified) | 1 nM | – | – | 0.82 nM | –

Continued, in another order:

Row | IC50 [1] | Stability [2] | Stability [3] | IC50 [4] | SMILES | other results
32 | 0.02 nM | Unstable | Unstable | 0.1 nM | Cc1cc(CC(OC(=O)N2CCC(N3Cc4ccccc4NC3=O)CC2)c2cc(CN3CCCCC3)ccn2)cc2cn[nH]c12 (stereo unspecified) | –
33 | 28 nM | Unstable | Unstable | 30 nM | Cc1cc(CC(OC(=O)N2CCC(N3Cc4ccccc4NC3=O)CC2)c2cc(C(=O)O)ccn2)cc2cn[nH]c12 (stereo unspecified) | –
34 | – | – | – | 6.6 nM | Cc1cc(CC(OC(=O)N2CCC(N3Cc4ccccc4NC3=O)CC2)c2ccccn2)cc2c(CN3CCCCC3)n[nH]c12 (stereo unspecified) | –
35 | – | Unstable | Unstable | 1.2 nM | Cc1cc(CC(OC(=O)N2CCC(c3cc4ccccc4[nH]c3=O)CC2)c2cc(CN3CCOCC3)ccn2)cc2cn[nH]c12 (stereo unspecified) | Papp [6]: 9.9 ×10⁻⁶ cm/s
36 | 0.34 nM | – | – | 0.28 nM | Cc1cc(CC(OC(=O)N2CCC(c3cc4ccccc4[nH]c3=O)CC2)c2cc(C(=O)N(C)C)cc(Cl)n2)cc2cn[nH]c12 (stereo unspecified) | Cp(f) [5]: 6%; Papp [6]: 5.2 ×10⁻⁶ cm/s; Ki [7]: 3.3 nM; bioavailability [8]: 4.5%
37 | 0.042 nM | Unstable | Unstable | 0.095 nM | Cc1cc(CC(OC(=O)N2CCC(c3cc4ccccc4[nH]c3=O)CC2)c2cc(CN3CCCCCC3)ccn2)cc2cn[nH]c12 (stereo unspecified) | Papp [6]: 2.8 ×10⁻⁶ cm/s
38 | 30 nM | – | – | 24 nM | Cc1cc(CC(CC(=O)N2CCC(c3cc4ccccc4[nH]c3=O)CC2)c2ccccn2)cc2cn[nH]c12 (stereo unspecified) | Papp [6]: 3.4 ×10⁻⁶ cm/s
39 | – | Unstable | Unstable | 0.24 nM | Cc1cc(CC(OC(=O)N2CCC(c3cc4ccccc4[nH]c3=O)CC2)c2cc(CN3CCCC3)ccn2)cc2cn[nH]c12 (stereo unspecified) | Papp [6]: 4.9 ×10⁻⁶ cm/s
40 | 2.1 nM | Unstable | Unstable | 2 nM | Cc1cc(CC(OC(=O)N2CCC(N3Cc4ccccc4NC3=O)CC2)c2cc(CO)ccn2)cc2cn[nH]c12 (stereo unspecified) | –
41 | 0.064 nM | – | – | 0.077 nM | Cc1cc(C[C@@H](OC(=O)N2CCC(c3cc4ccccc4[nH]c3=O)CC2)c2cc(C(=O)N(C)C)cc(Cl)n2)cc2cn[nH]c12 | –
42 | 0.099 nM | Unstable | Unstable | 0.28 nM | Cc1cc(CC(OC(=O)N2CCC(N3Cc4ccccc4NC3=O)CC2)c2cc(C(=O)N3CCCCC3)ccn2)cc2cn[nH]c12 (stereo unspecified) | –
43 | 0.28 nM | Unstable | Unstable | 0.21 nM | Cc1cc(CC(OC(=O)N2CCC(N3Cc4ccccc4NC3=O)CC2)c2cc(C=O)ccn2)cc2cn[nH]c12 (stereo unspecified) | –
44 | 0.1 nM | Unstable | Unstable | 0.16 nM | Cc1cc(CC(OC(=O)N2CCC(c3cc4ccccc4[nH]c3=O)CC2)c2cc(CN3CCCCC3)ccn2)cc2cn[nH]c12 (stereo unspecified) | Papp [6]: 8.5 ×10⁻⁶ cm/s
45 | – | Unstable | Unstable | 12 nM | Cc1cc(CC(OC(=O)N2CCC(c3cc4ccccc4[nH]c3=O)CC2)c2ccccn2)cc2cn[nH]c12 (stereo unspecified) | –
